Assay results from ChEMBL document CHEMBL1201862, “PubChem BioAssay data set” (2004).
Values belong to the compound of their own block, whether it stands above or below them. Activity calls are given as the source filed them.

Tests used:
[1] = biological target: MAP kinase-activated protein kinase 5 (Homo sapiens, UniProt Q8IW41); type: functional;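 further: measured as one member of a kinome panel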
[2] = biological target: Tyrosine-protein kinase Fer (Homo sapiens, UniProt P16591); type: functional;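 further: FER tested as one member of a kinome panel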
[3] = biological target: Cyclin-dependent kinase 9 (Homo sapiens, UniProt P50750); type: functional;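 further: value from the CDK9 entry of a kinome-spanning kinase panel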
[4] = biological target: Calcium/calmodulin-dependent protein kinase type 1 (Homo sapiens, UniProt Q14012); type: functional
[5] = biological target: Epidermal growth factor receptor (Homo sapiens, UniProt P00533)
SRSF protein kinase 1 = SRSF protein kinase 1 (Homo sapiens, UniProt Q96SB4); type: functional;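 further: measured as one member of a kinome-wide kinase profiling panel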
[6] = biological target: Cyclin-dependent kinase 7 (Homo sapiens, UniProt P50613); type: functional;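 further: value comes from a kinome-wide kinase profiling panel in which CDK7 is one member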
[7] = biological target: Mitogen-activated protein kinase kinase kinase kinase 2 (Homo sapiens, UniProt Q12851); type: functional;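 further: measured as one member of a kinome-wide kinase panel, with MAP4K2 as the panel entry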
[8] = biological target: Serine/threonine-protein kinase D2 (Homo sapiens, UniProt Q9BZL6); type: functional;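 further: measured against PRKD2 as one member of a kinome-wide kinase profiling panel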
[9] = biological target: Rho-associated protein kinase 1 (Homo sapiens, UniProt Q13464); type: functional;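 further: measured within a broad kinome-wide panel profiling many kinases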
Activin receptor type-1 = Activin receptor type-1 (Homo sapiens, UniProt Q04771); test: Navigating the Kinome. Panel member name: ACVR1; type: functional
[10] = biological target: Protein kinase C delta type (Homo sapiens, UniProt Q05655); type: functional
[11] = biological target: Dual specificity tyrosine-phosphorylation-regulated kinase 1A (Homo sapiens, UniProt Q13627); type: functional;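 further: measured against DYRK1A as one member of a broad kinome profiling panel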
[12] = biological target: Tyrosine-protein kinase BTK (Homo sapiens, UniProt Q06187); type: functional
[13] = biological target: Protein kinase C theta type (Homo sapiens, UniProt Q04759); test: Navigating the Kinome. Panel member name: PRKCQ; type: functional
[14] = biological target: Proto-oncogene tyrosine-protein kinase ROS (Homo sapiens, UniProt P08922); type: functional;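 further: ROS1 tested as one member of a kinome-wide kinase panel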
[15] = biological target: Serine/threonine-protein kinase TBK1 (Homo sapiens, UniProt Q9UHD2); test: Navigating the Kinome. Panel member name: TBK1; type: functional
[16] = biological target: Serine/threonine-protein kinase pim-2 (Homo sapiens, UniProt Q9P1W9); type: functional;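 further: value comes from a broad kinase panel profiling study in which PIM2 was one of the panel members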
[17] = biological target: Macrophage colony-stimulating factor 1 receptor (Homo sapiens, UniProt P07333); type: functional;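 further: value comes from the Navigating the Kinome screening panel, CSF1R member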
[18] = biological target: Ribosomal protein S6 kinase alpha-3 (Homo sapiens, UniProt P51812); type: functional;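 further: measured within a kinome-wide profiling panel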
[19] = biological target: Serine/threonine-protein kinase TAO1 (Homo sapiens, UniProt Q7L7X3); type: functional
[20] = biological target: Vascular endothelial growth factor receptor 2 (Homo sapiens, UniProt P35968); type: functional
[21] = biological target: Serine/threonine-protein kinase pim-3 (Homo sapiens, UniProt Q86V86); type: functional;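 further: value obtained as one member of a broad kinase panel profiling effort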
[22] = biological target: Ribosomal protein S6 kinase beta-1 (Homo sapiens, UniProt P23443); type: functional;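 further: measured as one member of a kinome-wide profiling panel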
[23] = biological target: Calcium/calmodulin-dependent protein kinase type II subunit gamma (Homo sapiens, UniProt Q13555); type: functional
[24] = biological target: Serine/threonine-protein kinase PAK 4 (Homo sapiens, UniProt O96013); type: functional;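 further: value obtained within a kinome profiling panel in which PAK4 was one of the panel members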
[25] = biological target: Cell division cycle 7-related protein kinase (Homo sapiens, UniProt O00311); type: functional;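 further: value obtained from a kinome-wide kinase panel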
Caspase-7 = biological target: T1, Caspase-7 (Homo sapiens, UniProt P55210); test: caspase-7 enzyme inhibition, selectivity check – biochemical, DEVD-R110 fluorescence, cherry-pick, selectivity assay for caspase-6 inhibitor project, dose response (AID 743295); type: functional
T1 sequence (P55210 whole entry): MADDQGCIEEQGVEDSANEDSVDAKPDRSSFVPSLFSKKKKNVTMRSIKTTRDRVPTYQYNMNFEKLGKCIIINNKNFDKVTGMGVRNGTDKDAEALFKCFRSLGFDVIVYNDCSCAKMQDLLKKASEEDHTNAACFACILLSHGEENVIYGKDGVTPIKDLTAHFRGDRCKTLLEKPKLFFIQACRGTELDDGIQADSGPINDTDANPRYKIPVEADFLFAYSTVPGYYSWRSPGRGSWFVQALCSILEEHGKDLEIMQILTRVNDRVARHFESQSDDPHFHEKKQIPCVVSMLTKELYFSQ

Caspase-9 = Caspase-9 (Homo sapiens, UniProt P55211); test: inhibitors of purified CASP9 protease – biochemical, fluorescence, plate reader, cherry-picked samples, selectivity assay for caspase-6 inhibitor project, dose response (AID 743293)
Caspase-3 [26] = biological target: T2, Caspase-3 (Homo sapiens, UniProt P42574); type: functional
T2 sequence (P42574 whole entry): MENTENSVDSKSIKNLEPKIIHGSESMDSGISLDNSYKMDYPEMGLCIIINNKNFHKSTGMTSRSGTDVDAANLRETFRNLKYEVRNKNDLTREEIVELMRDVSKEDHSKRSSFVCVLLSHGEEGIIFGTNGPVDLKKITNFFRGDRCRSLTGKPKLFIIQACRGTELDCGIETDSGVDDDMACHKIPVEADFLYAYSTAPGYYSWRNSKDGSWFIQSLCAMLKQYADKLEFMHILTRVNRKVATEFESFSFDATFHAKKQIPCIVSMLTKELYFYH

[27] = biological target: T3, Sentrin-specific protease 8 (Homo sapiens, UniProt Q96LD8); type: functional;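 further: luminescence read-out of SENP8 inhibition, dose-response confirmation following an ultra-high-throughput screen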
T3 sequence (Q96LD8 whole entry): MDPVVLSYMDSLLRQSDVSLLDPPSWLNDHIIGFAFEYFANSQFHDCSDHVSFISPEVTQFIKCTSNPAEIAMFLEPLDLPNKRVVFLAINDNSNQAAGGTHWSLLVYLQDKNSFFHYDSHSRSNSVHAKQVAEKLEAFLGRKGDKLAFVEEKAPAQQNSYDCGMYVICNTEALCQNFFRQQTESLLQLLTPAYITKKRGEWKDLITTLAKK

[28] = biological target: T3, Sentrin-specific protease 8; test: inhibition of human SENP8 cleavage activity – biochemical, luminescence, SAR follow-up (AID 504501); type: functional
[29] = biological target: Peroxisome proliferator-activated receptor gamma/Nuclear receptor corepressor 2 (Homo sapiens, UniProt P37231+Q9Y618); type: functional
Caspase-3 [30] = biological target: T2, Caspase-3; test: Dose-response confirmation of uHTS inhibitor hits of Sentrin-Specific Protease 8 in a Caspase-3 Fluorescence assay.; type: functional

Sequence of Caspase-9 (P55211 1-315 limits assumed): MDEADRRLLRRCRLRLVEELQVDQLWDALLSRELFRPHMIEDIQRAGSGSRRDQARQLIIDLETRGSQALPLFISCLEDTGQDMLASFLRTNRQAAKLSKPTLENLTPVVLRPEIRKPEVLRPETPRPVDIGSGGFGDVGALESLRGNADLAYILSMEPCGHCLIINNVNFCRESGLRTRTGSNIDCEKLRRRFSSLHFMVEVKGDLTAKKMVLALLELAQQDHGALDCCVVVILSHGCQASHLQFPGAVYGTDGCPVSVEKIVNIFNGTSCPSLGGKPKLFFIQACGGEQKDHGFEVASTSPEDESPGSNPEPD
Sequence of Caspase-9 (P55211 331-416 limits assumed): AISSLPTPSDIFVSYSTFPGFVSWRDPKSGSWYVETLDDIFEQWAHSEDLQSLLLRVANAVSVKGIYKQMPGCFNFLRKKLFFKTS
Sequence of Cyclin-dependent kinase 9 (P50750 whole entry): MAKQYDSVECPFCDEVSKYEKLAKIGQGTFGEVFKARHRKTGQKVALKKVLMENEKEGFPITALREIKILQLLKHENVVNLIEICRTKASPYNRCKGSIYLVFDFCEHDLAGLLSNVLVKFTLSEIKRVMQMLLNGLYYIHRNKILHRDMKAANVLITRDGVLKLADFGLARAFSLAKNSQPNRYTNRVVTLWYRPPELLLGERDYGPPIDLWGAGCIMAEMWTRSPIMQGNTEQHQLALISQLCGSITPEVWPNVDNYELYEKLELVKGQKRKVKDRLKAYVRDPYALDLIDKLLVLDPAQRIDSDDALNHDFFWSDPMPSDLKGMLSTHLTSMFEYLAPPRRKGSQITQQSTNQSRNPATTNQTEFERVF
Sequence of Rho-associated protein kinase 1 (Q13464 whole entry): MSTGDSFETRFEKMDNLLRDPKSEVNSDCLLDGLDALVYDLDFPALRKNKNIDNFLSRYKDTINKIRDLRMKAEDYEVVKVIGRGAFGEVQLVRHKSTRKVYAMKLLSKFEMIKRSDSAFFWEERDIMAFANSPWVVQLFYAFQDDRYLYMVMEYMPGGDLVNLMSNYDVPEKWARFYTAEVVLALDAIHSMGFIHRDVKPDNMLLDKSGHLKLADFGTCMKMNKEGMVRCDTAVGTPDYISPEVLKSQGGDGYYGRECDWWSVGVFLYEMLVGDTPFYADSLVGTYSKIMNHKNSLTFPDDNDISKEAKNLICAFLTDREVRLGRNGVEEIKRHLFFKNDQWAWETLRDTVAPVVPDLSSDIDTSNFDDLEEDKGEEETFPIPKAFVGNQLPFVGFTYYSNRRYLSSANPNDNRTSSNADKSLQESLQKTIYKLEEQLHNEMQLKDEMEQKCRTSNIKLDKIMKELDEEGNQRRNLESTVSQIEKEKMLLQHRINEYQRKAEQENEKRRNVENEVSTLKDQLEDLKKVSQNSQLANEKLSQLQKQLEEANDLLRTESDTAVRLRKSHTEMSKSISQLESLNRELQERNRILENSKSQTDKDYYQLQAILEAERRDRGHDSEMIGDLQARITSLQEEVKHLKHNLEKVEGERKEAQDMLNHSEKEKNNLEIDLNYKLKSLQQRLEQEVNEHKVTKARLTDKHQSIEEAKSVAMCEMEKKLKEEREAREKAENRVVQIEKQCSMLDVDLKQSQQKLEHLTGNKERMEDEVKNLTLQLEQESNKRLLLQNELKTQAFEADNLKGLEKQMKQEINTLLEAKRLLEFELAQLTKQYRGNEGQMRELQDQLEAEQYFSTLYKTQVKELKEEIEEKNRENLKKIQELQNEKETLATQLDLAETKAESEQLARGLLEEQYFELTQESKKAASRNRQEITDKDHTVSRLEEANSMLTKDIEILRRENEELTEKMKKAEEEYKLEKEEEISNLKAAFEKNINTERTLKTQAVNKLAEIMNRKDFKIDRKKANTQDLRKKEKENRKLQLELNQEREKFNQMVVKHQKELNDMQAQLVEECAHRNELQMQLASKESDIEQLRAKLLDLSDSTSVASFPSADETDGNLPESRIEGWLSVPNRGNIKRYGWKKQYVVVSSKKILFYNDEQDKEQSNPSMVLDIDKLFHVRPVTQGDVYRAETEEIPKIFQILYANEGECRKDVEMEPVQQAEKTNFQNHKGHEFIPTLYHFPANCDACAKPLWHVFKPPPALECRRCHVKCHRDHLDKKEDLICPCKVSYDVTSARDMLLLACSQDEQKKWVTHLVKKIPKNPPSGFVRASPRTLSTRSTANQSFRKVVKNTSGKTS
Sequence of Protein kinase C delta type (Q05655 whole entry): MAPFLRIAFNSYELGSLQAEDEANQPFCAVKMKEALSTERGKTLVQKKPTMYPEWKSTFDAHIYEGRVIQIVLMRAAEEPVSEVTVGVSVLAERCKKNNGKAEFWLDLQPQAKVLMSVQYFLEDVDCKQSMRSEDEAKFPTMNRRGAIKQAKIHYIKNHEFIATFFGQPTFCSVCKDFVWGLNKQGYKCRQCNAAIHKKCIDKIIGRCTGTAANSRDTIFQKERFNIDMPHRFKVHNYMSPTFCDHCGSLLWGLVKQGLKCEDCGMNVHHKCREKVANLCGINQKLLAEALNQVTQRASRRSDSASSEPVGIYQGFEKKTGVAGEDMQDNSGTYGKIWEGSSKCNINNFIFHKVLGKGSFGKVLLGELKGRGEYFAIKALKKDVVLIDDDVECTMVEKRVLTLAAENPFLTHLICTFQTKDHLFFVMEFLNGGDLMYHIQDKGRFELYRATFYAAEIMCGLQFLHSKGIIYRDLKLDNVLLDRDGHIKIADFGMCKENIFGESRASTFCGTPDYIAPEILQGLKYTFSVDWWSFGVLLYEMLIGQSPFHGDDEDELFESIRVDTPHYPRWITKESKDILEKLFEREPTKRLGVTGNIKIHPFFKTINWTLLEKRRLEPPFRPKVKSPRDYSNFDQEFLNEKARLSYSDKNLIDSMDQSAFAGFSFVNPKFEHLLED
Sequence of SRSF protein kinase 1 (Q96SB4 whole entry): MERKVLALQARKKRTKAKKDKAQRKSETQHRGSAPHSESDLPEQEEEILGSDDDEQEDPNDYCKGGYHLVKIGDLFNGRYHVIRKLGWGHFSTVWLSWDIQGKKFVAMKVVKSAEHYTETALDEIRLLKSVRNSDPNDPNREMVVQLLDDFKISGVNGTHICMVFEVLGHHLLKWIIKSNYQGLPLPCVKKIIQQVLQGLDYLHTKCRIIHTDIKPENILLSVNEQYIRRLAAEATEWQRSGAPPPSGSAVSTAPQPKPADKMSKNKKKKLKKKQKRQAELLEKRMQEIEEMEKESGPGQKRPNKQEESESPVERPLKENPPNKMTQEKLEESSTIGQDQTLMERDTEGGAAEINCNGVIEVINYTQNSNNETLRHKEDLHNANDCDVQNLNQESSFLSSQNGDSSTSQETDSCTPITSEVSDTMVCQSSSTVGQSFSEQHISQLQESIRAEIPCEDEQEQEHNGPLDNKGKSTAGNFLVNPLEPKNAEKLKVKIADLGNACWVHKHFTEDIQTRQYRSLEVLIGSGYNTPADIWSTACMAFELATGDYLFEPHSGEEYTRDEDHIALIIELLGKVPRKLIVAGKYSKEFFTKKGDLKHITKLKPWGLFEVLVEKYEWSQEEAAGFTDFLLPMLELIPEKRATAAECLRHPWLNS
Sequence of Epidermal growth factor receptor (P00533 whole entry): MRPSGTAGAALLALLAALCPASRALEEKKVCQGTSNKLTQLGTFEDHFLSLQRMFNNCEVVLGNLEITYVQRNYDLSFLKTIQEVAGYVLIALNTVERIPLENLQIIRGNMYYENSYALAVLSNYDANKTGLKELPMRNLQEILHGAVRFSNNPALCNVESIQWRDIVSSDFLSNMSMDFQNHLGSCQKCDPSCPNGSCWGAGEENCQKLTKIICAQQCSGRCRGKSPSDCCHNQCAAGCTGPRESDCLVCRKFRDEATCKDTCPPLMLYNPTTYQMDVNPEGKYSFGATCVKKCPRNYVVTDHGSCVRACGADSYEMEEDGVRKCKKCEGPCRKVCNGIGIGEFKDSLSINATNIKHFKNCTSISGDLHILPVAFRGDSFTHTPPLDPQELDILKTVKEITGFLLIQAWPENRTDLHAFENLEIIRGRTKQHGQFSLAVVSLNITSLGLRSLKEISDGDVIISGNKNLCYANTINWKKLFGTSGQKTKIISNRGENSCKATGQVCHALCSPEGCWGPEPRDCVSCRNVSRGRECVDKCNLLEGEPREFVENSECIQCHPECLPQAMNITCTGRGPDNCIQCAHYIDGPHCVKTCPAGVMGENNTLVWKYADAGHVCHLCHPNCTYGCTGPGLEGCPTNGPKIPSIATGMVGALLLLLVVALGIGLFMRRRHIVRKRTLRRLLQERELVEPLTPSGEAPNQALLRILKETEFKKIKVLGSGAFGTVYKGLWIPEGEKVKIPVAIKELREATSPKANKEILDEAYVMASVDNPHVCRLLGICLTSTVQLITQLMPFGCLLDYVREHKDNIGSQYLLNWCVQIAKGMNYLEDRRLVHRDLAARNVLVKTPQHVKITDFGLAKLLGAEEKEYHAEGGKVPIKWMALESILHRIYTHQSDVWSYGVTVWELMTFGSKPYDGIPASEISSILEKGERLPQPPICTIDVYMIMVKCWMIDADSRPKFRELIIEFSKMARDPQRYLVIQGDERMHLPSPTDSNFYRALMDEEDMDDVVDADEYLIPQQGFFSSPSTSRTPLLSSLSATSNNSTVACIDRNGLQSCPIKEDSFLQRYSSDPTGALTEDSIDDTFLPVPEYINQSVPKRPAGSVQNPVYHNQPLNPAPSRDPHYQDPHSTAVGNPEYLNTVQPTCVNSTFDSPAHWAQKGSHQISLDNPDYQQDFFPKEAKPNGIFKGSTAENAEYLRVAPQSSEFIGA

Ki [1]: > 1580 nM (inactive)
Ki [2]: > 1580 nM (inactive)
Ki [3]: > 1580 nM (inactive)
Ki [4]: > 1580 nM (inactive)
Ki [5]: > 2000 nM (inactive)
Ki (SRSF protein kinase 1): > 7940 nM (inactive)
Ki [6]: 1000 nM (active)
Ki [7]: > 2000 nM (inactive)
Ki [8]: 1000 nM (active)
Ki [9]: 158 nM (active)
Ki (Activin receptor type-1): 1000 nM (active)
Ki [10]: 158 nM (active)
Ki [11]: > 1260 nM (inactive)
Ki [12]: > 3980 nM (inactive)
Ki [13]: 7.94 nM (active)
Ki [14]: > 2000 nM (inactive)
Ki [15]: > 3160 nM (inactive)
Ki [16]: > 1580 nM (inactive)
Ki [17]: > 2510 nM (inactive)
Ki [18]: 1260 nM (active)
Ki [19]: > 7940 nM (inactive)
Ki [20]: > 5010 nM (inactive)
Ki [21]: > 7940 nM (inactive)
Ki [22]: 501 nM (active)
Ki [23]: > 6310 nM (inactive)
Ki [24]: 1580 nM (active)
Ki [25]: > 1260 nM (inactive)
Structure (SMILES): CC(N)C1CCC(C(=O)Nc2ccnc3[nH]ccc23)CC1 (centres undefined)

Structure (SMILES): Cc1c(NC(=O)C(C)OC(=O)c2ccc([N+](=O)[O-])s2)c(=O)n(-c2ccccc2)n1C (centres undefined)
AC50 (Caspase-7): 17500 nM (active)
AC50 (Caspase-9): 41300 nM (active)
IC50 (Caspase-3 [26]): 13600 nM (active)
IC50 [27]: 6500 nM (active)

Structure (SMILES): COc1cc(Br)c(C(=O)c2nccc3cc(OC)c(OC)cc23)cc1OC
IC50 [28]: 35600 nM (active)
IC50 [29]: > 39800 nM (not active)
IC50 (Caspase-3 [30]): 407 nM (active)
